# Measurements from patent US6107316A, “Method for treating protozoal infections” (priority 1998, dated 2000).
# Where two headings read alike, the source gives them in different places.
# Experiments:
# Giardia lamblia = assay: in vitro growth inhibitory activity against Giardia lamblia; format: cell-based; conditions: Giardia duodenalis; concentration required to inhibit growth by 50%
# Description: 35, pp. 2198-2202 (1991). EC50 values for test compounds, expressed in parts per million (ppm), were calculated from dose response curves and are presented in Table 4. As used herein, the terminology "EC50" means the concentration of test compound required to inhibit growth by 50% are compared to a control lacking the test compound. Metronidazole was included as a standard in the tests for comparative purposes.
# Leishmania major = assay: in vitro growth inhibitory activity against L. major promastigotes; format: cell-based
# Text: 35, pp. 2198-2202 (1991).
# Tetrahymena pyriformis = assay: in vitro growth inhibitory activity against the ciliate Tetrahymena pyriformis; format: cell-based, Tetrahymena pyriformis (ATCC strain 30005); conditions: read-out: EC50 Tetrahymena pyriformis
# Description: Compounds were evaluated for in vitro growth inhibitory activity against the ciliate Tetrahymena pyriformis, which was used as an indicator organism for the Apicomplexia since by several criteria the ciliates and Apicomplexa are closely related (Edlind T. D. et al., Mol. Phylogenet. Evol. vol. 5, pp. 359-367, 1996). T. pyriformis (ATCC strain 30005) was grown in 1 ml ATCC medium 357 at 25° C. in 4 ml polyallomer culture tubes without shaking. Compounds were dissolved in dimethylsufoxide (DMSO) and added to the cultures (containing 3,000 cells/ml) such that the final DMSO concentration was 0.1-0.3%. […] Parasitol. vol. 84, pp. 355-370, 1996) and Cryptosporidium parvum (Arrowood et al., FEMS Microbial. Lett., vol. 136, pp. 245-249, 1996) were tested for comparison.
# Toxoplasma gondii [1] = assay: growth inhibition of T. gondii in L929 host cells ([3H]-uracil incorporation); format: cell-based; conditions: L929 host cells; for inhibition at 5 µg/mL / inhibition at 0.5 µg/mL: Toxoplasma gondii, read-out: % Inhibition
# Description: (§1) Compounds were tested for it vitro growth inhibitory activity against Toxoplasma gondii replication in L929 (L929-ATCC CCL 1, mouse connective tissue) or HFF (human foreskin fibroblast) host cells using the [^3 H]-uracil incorporation technique as follows. Host cells were grown in 96-well flat-bottom microtiter plates at 37° C in a 5% carbon dioxide environment in modified Eagle's medium containing penicillin, streptomycin and 10% fetal equine serum. Wells containing a homogeneous confluent monolayer of host cells were infected with T. gondii tachyzoites at a ratio of 3 parasites per cell (approximately 6×10^4 tachyzoites per well containing 100 μl of medium). […] Two hours post infection, the cultures were washed to remove free parasites and the various dilutions of test compound were added. Cells were subsequently collected at 24, 48 and 72 hours. Four hours prior to each harvesting 50 Al of [^3 H]-uracil (1 μCi) was added. Cells were collected using a cell harvester and incorporated radioactivity was measured using a scintillation counter. […]
# Toxoplasma gondii [2] = assay: growth inhibition of T. gondii in HFF host cells ([3H]-uracil incorporation); format: cell-based; conditions: HFF host cells; for inhibition at 0.5 µg/mL / inhibition at 5 µg/mL: Toxoplasma gondii, read-out: % Inhibition
# Description: as §1
# [3] = cytotoxicity towards HFF host cells (Cell Titer 96); conditions: human, % Inhibition of host cell growth (values in parenthesis)
# Description: (§2) Cytotoxicity of the test compounds towards host cells was determined using the Cell Titer 96™ it (Promega Corporation, Madison, Wis.) as follows. Cells were seeded at a concentration of 5×10^3 cells per well containing 100 μl of medium in 96-well flat-bottom microtiter plates and incubated at 37° C. in a 5% carbon dioxide environment for 4 hours. Dilutions of the test compounds prepared as described above were then added, and incubation continued for 24, 48 or 72 hours. Four hours before each of these time points the growth medium containing test compound was replaced with 100 μl of fresh medium followed by addition of 16 μl of the kit dye solution. After incubation at 37° C. for another 4 hours, 100 μl of the kit solubilization/stop solution was added to each well, the contents of the wells were mixed and the plates kept 1 hour at room temperature. The plates were then read spectrophotometrically in a plate reader at a wavelength of 570 nm. […] Atovaquone was included in the test as a standard.
# Cryptosporidium parvum = assay: growth inhibitory activity against C. parvum in host MDBKF5D2 cells (immunofluorescence); format: cell-based; conditions: for % Inhibition: 48 hours
# Description: (§3) Compounds were tested for in vitro growth inhibitory activity against C. parvum grown in host MDBKF5D2 cells and for toxicity towards the host cells as follows. […] To test for toxicity towards the host cells, the media containing test compound (200 μl) were introduced into two wells of a 96 well microtiter plate containing confluent MDBKF5D2 cell monolayers and two wells without monolayers, and incubated at 37° C. in an 8% carbon dioxide environment. After 48 hours, the tetrazolium salt MTS (Owen's solution) and phenazine methosulfate were added to each well at concentrations of 333 μg/ml and 25 μM, respectively. The plate was returned to the incubator in the dark to develop for 2 hours, then 100 μl of each supernatant was transferred to a new microtiter plate and read spectrophotometrically in a plate reader at a wavelength of 490 nm. Percent toxicity was calculated by subtracting the mean optical density (OD) of the drug supernatants from the OD of medium control supernatants (no drug), dividing by the OD of the medium control, and multiplying by 100. To test for growth inhibitory activity against C. parvum, 3×10^4 oocysts per well were incubated in mentioned concentrations of each drug at 37° C. (8% CO2) on confluent MDBKF5D2 cell monolayers in 96 well microtiter plates. After 48 hours, the level of infection in each well was determined by means of an immunofluorescence assay. Percent inhibition of growth was calculated by subtracting the mean parasite count in the wells containing test compound from the mean parasite count in the medium control wells (no test compound), dividing by the mean parasite count in the medium control wells, and multiplying by 100. Paromomycin was included in the test as a standard.
# [4] = cytotoxicity towards L929 host cells (Cell Titer 96); conditions: mouse, % Inhibition of host cell growth (values in parenthesis)
# Description: as §2
# [5] = toxicity towards MDBKF5D2 host cells (MTS); conditions: bovine, mdbkf5d2 cells, Cytotoxicity (percent toxicity)
# Description: as §3
# MDBKF5D2 cells = assay: toxicity towards MDBKF5D2 host cells (MTS); conditions: 48 hours, 2880 min
# Description: as §3
# [6] = L929, 48 h, 5.0 μg/ml, 48 hours
# [7] = L929, 72 h, 5.0 μg/ml, 72 hours
# [8] = Cryptosporidium parvum, 48 h, 0.1 μM
# [9] = Cryptosporidium parvum, 48 h, 1.0 μM
compound,measurement,setting,value
CCC(C)(NC(=O)c1cc(Cl)cc(Cl)c1)C(=O)C(Br)Br (stereo not drawn) [Compound 4],EC50,Giardia lamblia,0.3 µg/mL
same,EC50,Leishmania major,0.2 µg/mL
same,EC50,"Tetrahymena pyriformis; 24 hours, 25° C.",0.1 µg/mL
CCC(C)(NC(=O)c1cc(Cl)cc(Cl)c1)C(=O)CCl (stereo not drawn) [Compound 5],EC50,Giardia lamblia,0.02 µg/mL
same,% Inhibition,"Toxoplasma gondii [1]; 0.5 μg/ml, 24 hours",39.2%
same,% Inhibition,"Toxoplasma gondii [1]; 0.5 μg/ml, 48 hours",64.7%
same,% Inhibition,"Toxoplasma gondii [1]; 0.5 μg/ml, 72 hours",44.1%
same,% Inhibition,"Toxoplasma gondii [1]; 5.0 μg/ml, 24 hours",3.3%
same,inhibition at 5 µg/mL,Toxoplasma gondii [1]; [6],69.2%
same,inhibition at 5 µg/mL,Toxoplasma gondii [1]; [7],84%
same,% Inhibition,"Toxoplasma gondii [2]; 0.5 μg/ml, 48 hours",97.6%
same,% Inhibition,"Toxoplasma gondii [2]; 0.5 μg/ml, 72 hours",80.2%
same,inhibition at 0.5 µg/mL,"Toxoplasma gondii [2]; 24 h, 0.5 μg/ml, 24 hours",55.9%
same,inhibition at 5 µg/mL,"Toxoplasma gondii [2]; 24 h, 5.0 μg/ml, 24 hours",89%
same,inhibition at 5 µg/mL,"Toxoplasma gondii [2]; 48 h, 5.0 μg/ml, 48 hours",100%
same,inhibition at 5 µg/mL,"Toxoplasma gondii [2]; 72 h, 5.0 μg/ml, 72 hours",99.6%
same,inhibition at 48 h,[3]; 0.5 μg/ml,5.3%
same,inhibition at 24 h,[3]; 5.0 μg/ml,8%
same,inhibition at 72 h,[3]; 5.0 μg/ml,39.6%
same,EC50,Leishmania major,0.06 µg/mL
same,% Inhibition,Cryptosporidium parvum; 10 μM,34.1%
same,inhibition at 0.1 µM,Cryptosporidium parvum; [8],10%
same,inhibition at 1 µM,Cryptosporidium parvum; [9],17.4%
same,EC50,"Tetrahymena pyriformis; 24 hours, 25° C.",0.003 µg/mL
same,inhibition at 48 h,"[4]; L929, 0.5 μg/ml",0%
same,inhibition at 72 h,"[4]; L929, 0.5 μg/ml",0%
same,inhibition at 48 h,"[4]; L929, 5.0 μg/ml",66.8%
same,inhibition at 72 h,"[4]; L929, 5.0 μg/ml",91.2%
same,"cytotoxicity at 48 h, 100 µM",[5],72.6%
same,Cytotoxicity (percent toxicity),MDBKF5D2 cells; 0.1 μM,18.8%
same,Cytotoxicity (percent toxicity),MDBKF5D2 cells; 1.0 μM,6.7%
same,Cytotoxicity (percent toxicity),MDBKF5D2 cells; 10 μM,31.4%
"CCC(C)(NC(=O)c1cc(Cl)c(N)c(C=NOC)c1)C(=O)CCl (stereo not drawn) [Compound 6, 4-amino-3-chloro-5-methoxyiminomethyl-N-(3-chloro-1-ethyl-1-methyl-2-oxopropyl)benzamide]",EC50,Giardia lamblia,0.009 µg/mL
same,EC50,Leishmania major,0.6 µg/mL
same,EC50,"Tetrahymena pyriformis; 24 hours, 25° C.",0.02 µg/mL
CCC(C)(NC(=O)c1cc(Cl)cc(Cl)c1)C(=O)CSC#N (stereo not drawn) [Compound 7],EC50,Giardia lamblia,0.05 µg/mL
same,EC50,Leishmania major,0.6 µg/mL
same,EC50,"Tetrahymena pyriformis; 24 hours, 25° C.",0.07 µg/mL
CCC(C)(NC(=O)c1cc(Cl)cc(Cl)c1)C(=O)CN=C=S (stereo not drawn) [Compound 8],EC50,Giardia lamblia,0.2 µg/mL
same,EC50,Leishmania major,0.7 µg/mL
same,EC50,Tetrahymena pyriformis; 24 h,0.07 µg/mL
CCC(C)(NC(=O)c1cc(Cl)cc(Cl)c1)C(=O)CCl (stereo not drawn) [Compound 13],% Inhibition,"Toxoplasma gondii [1]; 0.5 μg/ml, 24 hours",11.6%
same,% Inhibition,"Toxoplasma gondii [1]; 0.5 μg/ml, 48 hours",33.2%
same,% Inhibition,"Toxoplasma gondii [1]; 0.5 μg/ml, 72 hours",0%
same,% Inhibition,"Toxoplasma gondii [1]; 5.0 μg/ml, 24 hours",11.4%
same,% Inhibition,"Toxoplasma gondii [1]; 5.0 μg/ml, 48 hours",83.9%
same,% Inhibition,"Toxoplasma gondii [1]; 5.0 μg/ml, 72 hours",88.5%
same,% Inhibition,"Toxoplasma gondii [2]; 0.5 μg/ml, 24 hours",72.3%
same,% Inhibition,"Toxoplasma gondii [2]; 0.5 μg/ml, 48 hours",28.1%
same,% Inhibition,"Toxoplasma gondii [2]; 0.5 μg/ml, 72 hours",0%
same,% Inhibition,"Toxoplasma gondii [2]; 5.0 μg/ml, 24 hours",93.0%
same,% Inhibition,"Toxoplasma gondii [2]; 5.0 μg/ml, 48 hours",98.2%
same,% Inhibition,"Toxoplasma gondii [2]; 5.0 μg/ml, 72 hours",97.8%
same,% Inhibition,Cryptosporidium parvum; 0.1 μM,9.9%
same,% Inhibition,Cryptosporidium parvum; 1.0 μM,12.5%
same,% Inhibition,Cryptosporidium parvum; 10 μM,15.7%
same,inhibition at 100 µM,"Cryptosporidium parvum; Cryptosporidium parvum, 48 h",87.5%
same,Cytotoxicity (percent toxicity),MDBKF5D2 cells; 0.1 μM,0%
same,Cytotoxicity (percent toxicity),MDBKF5D2 cells; 1.0 μM,2.4%
same,Cytotoxicity (percent toxicity),MDBKF5D2 cells; 10 μM,4.3%
same,Cytotoxicity (percent toxicity),MDBKF5D2 cells; 100 μM,54.3%
CCC(C)(NC(=O)c1cc(Br)c(N)c(Br)c1)C(=O)CCl (stereo not drawn) [Compound 14],inhibition at 0.5 µg/mL,"Toxoplasma gondii [1]; L929, 24 h, 0.5 μg/ml, 24 hours",29.3%
same,inhibition at 5 µg/mL,"Toxoplasma gondii [1]; L929, 24 h, 5.0 μg/ml, 24 hours",6.9%
same,inhibition at 0.5 µg/mL,"Toxoplasma gondii [1]; L929, 48 h, 0.5 μg/ml, 48 hours",79.8%
same,inhibition at 5 µg/mL,Toxoplasma gondii [1]; [6],61.2%
same,inhibition at 0.5 µg/mL,"Toxoplasma gondii [1]; L929, 72 h, 0.5 μg/ml, 72 hours",84.9%
same,inhibition at 5 µg/mL,Toxoplasma gondii [1]; [7],79.7%
same,inhibition at 0.5 µg/mL,"Toxoplasma gondii [2]; 24 h, 0.5 μg/ml, 24 hours",63.9%
same,inhibition at 5 µg/mL,"Toxoplasma gondii [2]; 24 h, 5.0 μg/ml, 24 hours",87.4%
same,inhibition at 0.5 µg/mL,"Toxoplasma gondii [2]; 48 h, 0.5 μg/ml, 48 hours",96.1%
same,inhibition at 5 µg/mL,"Toxoplasma gondii [2]; 48 h, 5.0 μg/ml, 48 hours",99.7%
same,inhibition at 0.5 µg/mL,"Toxoplasma gondii [2]; 72 h, 0.5 μg/ml, 72 hours",77.8%
same,inhibition at 5 µg/mL,"Toxoplasma gondii [2]; 72 h, 5.0 μg/ml, 72 hours",99.1%
same,inhibition at 24 h,[3]; 0.5 μg/ml,4.1%
same,inhibition at 48 h,[3]; 0.5 μg/ml,3.7%
same,inhibition at 72 h,[3]; 0.5 μg/ml,0%
same,inhibition at 24 h,[3]; 5.0 μg/ml,5.8%
same,inhibition at 48 h,[3]; 5.0 μg/ml,31.8%
same,inhibition at 72 h,[3]; 5.0 μg/ml,53.6%
same,inhibition at 0.1 µM,Cryptosporidium parvum; [8],2.1%
same,inhibition at 1 µM,Cryptosporidium parvum; [9],11.3%
same,inhibition at 10 µM,"Cryptosporidium parvum; Cryptosporidium parvum, 48 h, 10 μM",35.4%
same,inhibition at 100 µM,"Cryptosporidium parvum; Cryptosporidium parvum, 48 h",86.7%
same,inhibition at 24 h,"[4]; L929, 0.5 μg/ml",8.9%
same,inhibition at 48 h,"[4]; L929, 0.5 μg/ml",0%
same,inhibition at 72 h,"[4]; L929, 0.5 μg/ml",0%
same,inhibition at 24 h,"[4]; L929, 5.0 μg/ml",21.8%
same,inhibition at 48 h,"[4]; L929, 5.0 μg/ml",58.7%
same,inhibition at 72 h,"[4]; L929, 5.0 μg/ml",77.6%
same,"cytotoxicity at 48 h, 0.1 µM",[5]; 0.1 μM,21%
same,"cytotoxicity at 48 h, 1 µM",[5]; 1.0 μM,6.1%
same,"cytotoxicity at 48 h, 10 µM",[5]; 10 μM,3.9%
same,"cytotoxicity at 48 h, 100 µM",[5],22.3%
CCC(C)(NC(=O)c1cc(Cl)c2ncoc2c1)C(=O)CCl (stereo not drawn) [Compound 16],EC50,Giardia lamblia,2 µg/mL
same,EC50,Leishmania major,7 µg/mL
same,EC50,"Tetrahymena pyriformis; 24 hours, 25° C.",0.6 µg/mL
